Values of other authors in patent US9949928B2, “Biodegradable copolymers, systems including the copolymers, and methods of forming and using same” (The Regents of the University of Colorado, a body corporate, priority 2013, dated 2018).

Conditions: cited from earlier work

## CC1(C)O[C@@H]2C[C@H]3[C@@H]4CCC5=CC(=O)C=C[C@]5(C)[C@@]4(F)[C@@H](O)C[C@]3(C)[C@]2(C(=O)CO)O1 [triamcinolone acetonide]
  log P: 1.16
